Source: patent US20250332178A1, “METHODS OF TREATING MYCOBACTERIAL INFECTIONS USING TETRACYCLINE COMPOUNDS” (priority 2018, published 2025)
≈ marks a conversion by molar mass, not a printed value. Like-named read-outs stand apart in the source and are kept apart here.

Tested on: H37Rv strain of Mycobacterium tuberculosis
Test: MIC against H37Rv strain
Format: cell-based
Method: The purpose of this study was to test activity of selected tetracycline compounds against the H37Rv strain of Mycobacterium tuberculosis. Minimum inhibitory concentrations (MIC) of different tetracycline compounds against H37Rv strain were determined and are shown in Table 8.

[1] = Mycobacterium tuberculosis, H37RV, read-out: MIC
[2] = Mycobacterium tuberculosis, H37RV

| SMILES | MIC [1] [µg/mL] | further results |
| --- | --- | --- |
| Cc1noc(C)c1S(=O)(=O)NCc1cc(N(C)C)c2c(c1O)C(=O)C1=C(O)[C@]3(O)C(=O)C(C(N)=O)=C(O)[C@@H](N(C)C)[C@@H]3C[C@@H]1C2 [Compound 67] | > 32 |  |
| CN(C)c1cc(CNC(=O)Nc2ccc3c(c2)OCO3)c(O)c2c1C[C@H]1C[C@H]3[C@H](N(C)C)C(O)=C(C(N)=O)C(=O)[C@@]3(O)C(O)=C1C2=O [Compound 24] | > 32 |  |
| CN(C)c1cc(CNCCc2ccccc2)c(O)c2c1C[C@H]1C[C@H]3C(N(C)C)C(O)=C(C(N)=O)C(=O)[C@@]3(O)C(O)=C1C2=O (some centres unmarked) [Compound 5] | > 32 |  |
| C[C@H]1c2ccc(CNCC(C)(C)C)c(O)c2C(=O)C2=C(O)[C@]3(O)C(=O)C(C(N)=O)=C(O)[C@@H](N(C)C)[C@@H]3[C@@H](O)[C@@H]21 [Compound 33] | > 32 |  |
| CCc1cc(CNCC(C)C)c(O)c2c1C[C@H]1C[C@H]3[C@H](N(C)C)C(O)=C(C(N)=O)C(=O)[C@@]3(O)C(O)=C1C2=O [Compound 30] | > 32 |  |
| CCc1cc(CNC(C)=O)c(O)c2c1C[C@H]1C[C@H]3C(N(C)C)C(O)=C(C(N)=O)C(=O)[C@@]3(O)C(O)=C1C2=O (some centres unmarked) [Compound 6] | > 32 |  |
| CC(C)NCc1cc(N(C)C)c2c(c1O)C(=O)C1=C(O)[C@]3(O)C(=O)C(C(N)=O)=C(O)[C@H](N(C)C)[C@@H]3C[C@@H]1C2 [Compound 39] | > 32 |  |
| CCCCN(CCCC)Cc1cc(N(C)C)c2c(c1O)C(=O)C1=C(O)[C@]3(O)C(=O)C(C(N)=O)=C(O)C(N(C)C)[C@@H]3C[C@@H]1C2 (some centres unmarked) [Compound 16] | > 32 |  |
| CN(C)c1cc(CNC(=O)Oc2ccccc2)c(O)c2c1C[C@H]1C[C@H]3[C@H](N(C)C)C(O)=C(C(N)=O)C(=O)[C@@]3(O)C(O)=C1C2=O [Compound 10] |  | MIC [2]: > 32 µg/mL |
| CC(C)CNCc1cc(N(C)C)c2c(c1O)C(=O)C1=C(O)[C@]3(O)C(=O)C(C(N)=O)=C(O)[C@H](N(C)C)[C@@H]3C[C@@H]1C2 [Compound 70] | 16 (≈ 29.5 µM) |  |
| CN(C)c1ccc(NC(=O)NCc2cc(N(C)C)c3c(c2O)C(=O)C2=C(O)[C@]4(O)C(=O)C(C(N)=O)=C(O)[C@@H](N(C)C)[C@@H]4C[C@@H]2C3)cc1 [Compound 26] | 32 (≈ 49.3 µM) |  |
| CN(C)CC(=O)NCc1cc(N(C)C)c2c(c1O)C(=O)C1=C(O)[C@]3(O)C(=O)C(C(N)=O)=C(O)C(N(C)C)[C@@H]3C[C@@H]1C2 (some centres unmarked) [Compound 60] | 16 (≈ 28 µM) |  |
| CN(C)c1cc(CNCc2ccccc2)c(O)c2c1C[C@H]1C[C@H]3[C@H](N(C)C)C(O)=C(C(N)=O)C(=O)[C@@]3(O)C(O)=C1C2=O [Compound 66] | > 32 |  |
| CCOC(=O)NCc1cc(N(C)C)c2c(c1O)C(=O)C1=C(O)[C@]3(O)C(=O)C(C(N)=O)=C(O)[C@H](N(C)C)[C@@H]3C[C@@H]1C2 [Compound 13] | 16 (≈ 28.6 µM) |  |
| CN(C)c1cc(CNC(=O)Oc2ccc(F)cc2)c(O)c2c1C[C@H]1C[C@H]3[C@H](N(C)C)C(O)=C(C(N)=O)C(=O)[C@@]3(O)C(O)=C1C2=O [Compound 23] |  | MIC [2]: 32 µg/mL (≈ 51.2 µM) |
| CCc1cc(CC)c2c(c1O)C(=O)C1=C(O)[C@]3(O)C(=O)C(C(N)=O)=C(O)[C@@H](N(C)C)[C@@H]3C[C@@H]1C2 [Compound 4] | > 32 |  |
| CN(C)c1cc(CNCc2cccn2C)c(O)c2c1C[C@H]1C[C@H]3[C@H](N(C)C)C(O)=C(C(N)=O)C(=O)[C@@]3(O)C(O)=C1C2=O [Compound 38] | > 32 |  |
| CN(C)c1cc(CNCc2cc[n+]([O-])cc2)c(O)c2c1C[C@H]1C[C@H]3[C@H](N(C)C)C(O)=C(C(N)=O)C(=O)[C@@]3(O)C(O)=C1C2=O [Compound 54] | 32 (≈ 53.9 µM) |  |
| CC(C)CNCc1cc(N(C)C)c2c(c1O)C(=O)C1=C(O)[C@]3(O)C(=O)C(C(N)=O)=C(O)C(N(C)C)[C@@H]3C[C@@H]1C2 (some centres unmarked) [Compound 45] | 32 (≈ 59 µM) |  |
| CN(C)[C@@H]1C(O)=C(C(N)=O)C(=O)[C@@]2(O)C(O)=C3C(=O)c4c(ccc(CNCC(C)(C)C)c4O)C[C@H]3C[C@@H]12 [Compound 68] | > 32 |  |
| CN(C)c1cc(CNCC2CCNCC2)c(O)c2c1C[C@H]1C[C@H]3[C@@H](N(C)C)C(O)=C(C(N)=O)C(=O)[C@@]3(O)C(O)=C1C2=O [Compound 49] | > 32 |  |
| CC(=O)NCc1cc(N(C)C)c2c(c1O)C(=O)C1=C(O)[C@]3(O)C(=O)C(C(N)=O)=C(O)C(N(C)C)[C@@H]3C[C@@H]1C2 (some centres unmarked) [Compound 3] | > 32 |  |
| CN(C)Cc1cc(N(C)C)c2c(c1O)C(=O)C1=C(O)[C@]3(O)C(=O)C(C(N)=O)=C(O)[C@@H](N(C)C)[C@@H]3C[C@@H]1C2 [Compound 40] | 32 (≈ 62.2 µM) |  |
| CCNCC(=O)NCc1cc(N(C)C)c2c(c1O)C(=O)C1=C(O)[C@]3(O)C(=O)C(C(N)=O)=C(O)[C@H](N(C)C)[C@@H]3C[C@@H]1C2 [Compound 46] | 32 (≈ 56 µM) |  |
| CC(C)CNCc1cc(N(C)C)c2c(c1O)C(=O)C1=C(O)[C@]3(O)C(=O)C(C(N)=O)=C(O)[C@@H](N(C)C)[C@@H]3C[C@@H]1C2 [Compound 14] | > 32 | MIC (H37Rv): 16 µg/mL (≈ 29.5 µM) |

| SMILES | MIC [1] [µg/mL] | further results |
| --- | --- | --- |
| CN(C)c1cc(CNC(=O)Oc2ccc(Br)cc2)c(O)c2c1C[C@H]1C[C@H]3[C@H](N(C)C)C(O)=C(C(N)=O)C(=O)[C@@]3(O)C(O)=C1C2=O [Compound 21] |  | MIC [2]: 16 µg/mL (≈ 23.3 µM) |
| CN(C)c1cc(CNC2CCCC2)c(O)c2c1C[C@H]1C[C@H]3C(N(C)C)C(O)=C(C(N)=O)C(=O)[C@@]3(O)C(O)=C1C2=O (some centres unmarked) [Compound 43] | > 32 |  |
| C[C@H]1c2ccc(CNC(=O)c3ccccc3)c(O)c2C(=O)C2=C(O)[C@]3(O)C(=O)C(C(N)=O)=C(O)[C@@H](N(C)C)[C@@H]3[C@@H](O)[C@@H]21 [Compound 37] | > 32 |  |
| CCCCNCc1cc(N(C)C)c2c(c1O)C(=O)C1=C(O)[C@]3(O)C(=O)C(C(N)=O)=C(O)[C@H](N(C)C)[C@@H]3C[C@@H]1C2 [Compound 15] | 32 (≈ 59 µM) |  |
| CN(C)C1C(O)=C(C(N)=O)C(=O)[C@@]2(O)C(O)=C3C(=O)c4c(O)c(CNC(=O)C5CC5)cc(-c5ccc(C(C)(C)C)cc5)c4C[C@H]3C[C@@H]12 (some centres unmarked) [Compound 31] | > 32 |  |
| CN(C)[C@H]1C(O)=C(C(N)=O)C(=O)[C@@]2(O)C(O)=C3C(=O)c4c(O)c(CNCC(C)(C)C)cc(-c5ccoc5)c4C[C@H]3C[C@@H]12 [Compound 73] | > 32 |  |
| CN(C)c1cc(CNC(=O)c2ccno2)c(O)c2c1C[C@H]1C[C@H]3C(N(C)C)C(O)=C(C(N)=O)C(=O)[C@@]3(O)C(O)=C1C2=O (some centres unmarked) [Compound 52] | 16 (≈ 27.5 µM) |  |
| CC(CCO)NCc1cc(N(C)C)c2c(c1O)C(=O)C1=C(O)[C@]3(O)C(=O)C(C(N)=O)=C(O)[C@H](N(C)C)[C@@H]3C[C@@H]1C2 (some centres unmarked) [Compound 44] | > 32 |  |
| CCCCCCOC(=O)NCc1cc(N(C)C)c2c(c1O)C(=O)C1=C(O)[C@]3(O)C(=O)C(C(N)=O)=C(O)[C@@H](N(C)C)[C@@H]3C[C@@H]1C2 [Compound 18] | > 32 |  |
| CC(C)CNCc1ccc2c(c1O)C(=O)C1=C(O)[C@]3(O)C(=O)C(C(N)=O)=C(O)[C@@H](N(C)C)[C@@H]3[C@@H](O)[C@@H]1[C@H]2C [Compound 34] | 32 (≈ 60.4 µM) |  |
| CN(C)c1cc(CNC(=O)C(Cc2ccccc2)N(C)C)c(O)c2c1C[C@H]1C[C@H]3[C@@H](N(C)C)C(O)=C(C(N)=O)C(=O)[C@@]3(O)C(O)=C1C2=O (some centres unmarked) [Compound 48] | > 32 |  |
| CN(C)c1cc(CNC(CF)CF)c(O)c2c1C[C@H]1C[C@H]3[C@H](N(C)C)C(O)=C(C(N)=O)C(=O)[C@@]3(O)C(O)=C1C2=O [Compound 79] |  | MIC [2]: 32 µg/mL (≈ 56.7 µM) |
| CN(C)c1cc(CNC(=O)[C@@H]2CCCN2C)c(O)c2c1C[C@H]1C[C@H]3[C@@H](N(C)C)C(O)=C(C(N)=O)C(=O)[C@@]3(O)C(O)=C1C2=O [Compound 71] | 16 (≈ 26.8 µM) |  |
| CN(C)c1cc(CNc2nc(C(F)(F)F)cs2)c(O)c2c1C[C@H]1C[C@H]3C(N(C)C)C(O)=C(C(N)=O)C(=O)[C@@]3(O)C(O)=C1C2=O (some centres unmarked) [Compound 76] | > 32 |  |
| Cc1csc(NCc2cc(N(C)C)c3c(c2O)C(=O)C2=C(O)[C@]4(O)C(=O)C(C(N)=O)=C(O)C(N(C)C)[C@@H]4C[C@@H]2C3)n1 (some centres unmarked) [Compound 62] | > 32 |  |
| CCC(C)CNCc1cc(N(C)C)c2c(c1O)C(=O)C1=C(O)[C@]3(O)C(=O)C(C(N)=O)=C(O)[C@@H](N(C)C)[C@@H]3C[C@@H]1C2 (some centres unmarked) [Compound 53] | 16 (≈ 28.7 µM) |  |
| CCc1cc(CNC(=O)CN(C)C)c(O)c2c1C[C@H]1C[C@H]3[C@@H](N(C)C)C(O)=C(C(N)=O)C(=O)[C@@]3(O)C(O)=C1C2=O [Compound 36] | 32 (≈ 57.5 µM) |  |
| CC(NCc1cc(N(C)C)c2c(c1O)C(=O)C1=C(O)[C@]3(O)C(=O)C(C(N)=O)=C(O)C(N(C)C)[C@@H]3C[C@@H]1C2)C(F)(F)F (some centres unmarked) [Compound 74] | > 32 |  |
| C[C@H]1c2ccc(CNCCc3ccccc3)c(O)c2C(=O)C2=C(O)[C@]3(O)C(=O)C(C(N)=O)=C(O)[C@@H](N(C)C)[C@@H]3[C@@H](O)[C@@H]21 [Compound 35] | > 32 |  |
| CCc1cc(CNC(=O)c2cccnc2)c(O)c2c1C[C@H]1C[C@H]3[C@H](N(C)C)C(O)=C(C(N)=O)C(=O)[C@@]3(O)C(O)=C1C2=O [Compound 1] | > 32 |  |
| Cc1cc(CNCc2cc(N(C)C)c3c(c2O)C(=O)C2=C(O)[C@]4(O)C(=O)C(C(N)=O)=C(O)[C@@H](N(C)C)[C@@H]4C[C@@H]2C3)oc1C [Compound 41] | > 32 |  |
| CN(C)c1cc(CN2CCCC2)c(O)c2c1C[C@H]1C[C@H]3C(N(C)C)C(O)=C(C(N)=O)C(=O)[C@@]3(O)C(O)=C1C2=O (some centres unmarked) [Compound 83] | 32 (≈ 59.2 µM) |  |
| COCCOC(=O)NCc1cc(N(C)C)c2c(c1O)C(=O)C1=C(O)[C@]3(O)C(=O)C(C(N)=O)=C(O)[C@@H](N(C)C)[C@@H]3C[C@@H]1C2 [Compound 19] | > 32 |  |
| CC(CF)NCc1cc(N(C)C)c2c(c1O)C(=O)C1=C(O)[C@]3(O)C(=O)C(C(N)=O)=C(O)C(N(C)C)[C@@H]3C[C@@H]1C2 (some centres unmarked) [Compound 42] |  | MIC [2]: 32 µg/mL (≈ 58.5 µM) |
